Values quoted from earlier work in patent publication US20250375396A1 (priority 2016, published 2025).
Structures can show the parent of a compound that is named as a salt.

Conditions: for Equilibrium Constant of Acid Amine (pKa(acid amine)): conjugated acid amine

Structure (SMILES)	Equilibrium Constant of Acid Amine (pKa(acid amine))	pKa
CCOc1ccccc1OCCN[C@H](C)Cc1ccc(OC)c(S(N)(=O)=O)c1 [Tamsulosin HCl]	8.37	
CCCN(CCC)CCc1cccc2c1CC(=O)N2 [Ropinirole HCl]	9.68	
CCN(C)C(=O)Oc1cccc([C@H](C)N(C)C)c1 [Rivastigmine HCl]	8.85	
COC(=O)C(c1ccccc1)C1CCCCN1 (stereo not drawn) [Methyl phenidate HCl]	8.77	
CCCN(CCc1cccs1)[C@H]1CCc2c(O)cccc2C1 [Rotigotine HCl]	7.90	
O=C([O-])[O-].[Na+].[Na+] [Sodium carbonate]		10.3
